As a reminder, the EC50 is the concentration that produces a half-maximal response. Read a high EC50 as a need for much substance. Broadly, the inhibition is the change of the read-out against control, counted positive when it falls.

Results on 24 compounds are retold here after patent publication US20180214428A1, “3-(1H-INDOL-2-YL)-1H-PYRAZOLO[3,4-B]PYRIDINES AND THERAPEUTIC USES THEREOF” (Samumed, LLC, priority 2015, published 2018).

Experiment [1] relates to Wnt activity (Sp5-Luc reporter gene, SW480 colon carcinoma cells). Description: Screening assay for Wnt activity: Sp5-Luc reporter gene assay in SW480 cells. It is filed as cell-based, human. As to conditions: Homo sapiens; for EC50: overnight incubation; for inhibition at 10 µM: given for EC50 of >10 μM, read-out: percent inhibition at 10 μM. The essentials:
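SW480 cells stably transduced with a luciferase reporter driven by an Sp5 promoter of eight TCF/LEF sites were plated at 4,000 cells/well in 1% FBS medium. They were exposed overnight at 37° C to a 10-point 1:3 dilution series from 10 μM (0.1% DMSO). Luminescence was normalized to DMSO for four-parameter EC50, or percent inhibition at 10 μM.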
For orientation: In a reporter assay the amount or activity of a reporter protein is the signal.

The next experiment deals with IL-6. Description: IL-6 inhibition in LPS-stimulated THP-1 monocytes (HTRF). It is filed as cell-based, human. The conditions noted are these: Homo sapiens, THP-1 cells; for EC50: 500 ng/mL LPS, 22 h, HTRF IL-6 readout, 10-point dose-response from 10 μM; for inhibition at 10 µM: LPS stimulated, given only where EC50 >10 μM, top concentration 10 μM, read-out: percentage in parentheses beside EC50 >10 (IL-6 inhibition). In outline: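 THP-1 cells serum-reduced (1% FBS, 24 h), then 5000 cells/well preincubated 2 h with compound (10-point 1:3 series from 10 μM, 0.1% DMSO) before 500 ng/mL LPS for 22 h at 37 °C. Secreted IL-6 quantified by HTRF 665/620 ratio; DMSO-normalised duplicates fitted to four-parameter EC50; above 10 μM, % inhibition at 10 μM given.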
In general terms: TR-FRET usually uses a lanthanide donor and a delayed reading to cut background.

For `Nc1cncc(-c2cnc3[nH]nc(-c4cc5c(-c6ccccc6F)cccc5[nH]4)c3c2)c1` [Compound 49, 5-(3-(4-(2-Fluorophenyl)-1H-indol-2-yl)-1H-pyrazolo[3,4-b]pyridin-5-yl) pyridin-3-amine], the EC50 in experiment [1] was found to be 99 nM; in the experiment with IL-6, 276 nM.
`CCCCC(=O)Nc1cncc(-c2cnc3[nH]nc(-c4cc5c(-c6ccccn6)cccc5[nH]4)c3c2)c1` [Compound 136, N-(5-(3-(4-(Pyridin-2-yl)-1H-indol-2-yl)-1H-pyrazolo[3,4-b]pyridin-5-yl)pyridin-3-yl)pentanamide]: the EC50 in experiment [1] is 385 nM; in the experiment with IL-6, 1890 nM.
`CC(C)(C)C(=O)Nc1cncc(-c2cnc3[nH]nc(-c4cc5c(-c6ccoc6)cccc5[nH]4)c3c2)c1` [Compound 290, N-(5-(3-(4-(Furan-3-yl)-1H-indol-2-yl)-1H-pyrazolo[3,4-b]pyridin-5-yl)pyridin-3-yl)pivalamide]: in experiment [1], the inhibition at 10 µM turned out to be 53% and the EC50 was above 10000 nM. For the same compound, in the experiment with IL-6, the EC50 was above 10000 nM and the inhibition at 10 µM is 31.2%.
With `CC(C)CC(=O)Nc1cncc(-c2cnc3[nH]nc(-c4cc5c(-c6cc(F)cc(NCCN(C)C)c6)cccc5[nH]4)c3c2)c1` [Compound 424, N-(5-(3-(4-(3-((2-(Dimethylamino)ethyl)amino)-5-fluorophenyl)-1H-indol-2-yl)-1H-pyrazolo[3,4-b]pyridin-5-yl)pyridin-3-yl)-3-methylbutanamide], the EC50 in experiment [1] was 304 nM; with IL-6, 660 nM.
Taken in the same sequence, the figures for `CS(=O)(=O)NCc1cc(F)cc(-c2cccc3[nH]c(-c4n[nH]c5ncc(-c6cncc(N)c6)cc45)cc23)c1` [Compound 453, N-(3-(2-(5-(5-Aminopyridin-3-yl)-1H-pyrazolo[3,4-b]pyridin-3-yl)-1H-indol-4-yl)-5-fluorobenzyl)methanesulfonamide] were 157 nM and 157 nM.
Take `CC(C)(C)CC(=O)Nc1cncc(-c2cnc3[nH]nc(-c4cc5c(-c6ccccn6)cccc5[nH]4)c3c2)c1` [Compound 133, 3,3-Dimethyl-N-(5-(3-(4-(pyridin-2-yl)-1H-indol-2-yl)-1H-pyrazolo[3,4-b]pyridin-5-yl)pyridin-3-yl)butanamide]: the EC50 in experiment [1] came out at 1010 nM; in the experiment with IL-6, 421 nM.
In turn, `CC(C)(C)C(=O)Nc1cncc(-c2cnc3[nH]nc(-c4cc5c(-c6ccc(F)cc6)cccc5[nH]4)c3c2)c1` [Compound 30, N-(5-(3-(4-(4-Fluorophenyl)-1H-indol-2-yl)-1H-pyrazolo[3,4-b]pyridin-5-yl)pyridin-3-yl)pivalamide] came in with an EC50 in experiment [1] of 2050 nM. In the experiment on IL-6, the EC50 is above 10000 nM and the inhibition at 10 µM stood at 42.8%.
For the compound `CN(C)c1cncc(-c2cnc3[nH]nc(-c4cc5c(N6CCCCC6)cccc5[nH]4)c3c2)c1` [Compound 151, N,N-Dimethyl-5-(3-(4-(piperidin-1-yl)-1H-indol-2-yl)-1H-pyrazolo[3,4-b]pyridin-5-yl)pyridin-3-amine], the EC50 was found to be 982 nM in experiment [1] and 5250 nM with IL-6.
Taken in the same sequence, the figures for `CCNCc1cncc(-c2cnc3[nH]nc(-c4cc5c(-c6ccccn6)cccc5[nH]4)c3c2)c1` [Compound 124, N-((5-(3-(4-(Pyridin-2-yl)-1H-indol-2-yl)-1H-pyrazolo[3,4-b]pyridin-5-yl)pyridin-3-yl)methyl)ethanamine] were 7010 nM and 194 nM.
Taken in the same sequence, the figures for `CCNCc1cncc(-c2cnc3[nH]nc(-c4cc5c(-c6cc(F)cc(NCCN(C)C)c6)cccc5[nH]4)c3c2)c1` [Compound 428, N^1-(3-(2-(5-(5-((Ethylamino)methyl)pyridin-3-yl)-1H-pyrazolo[3,4-b]pyridin-3-yl)-1H-indol-4-yl)-5-fluorophenyl)-N^2,N^2-dimethylethane-1,2-diamine] were 947 nM and 257 nM.
On to `Fc1cccc(-c2cccc3[nH]c(-c4n[nH]c5ncc(-c6cncc(OCc7ccccc7)c6)cc45)cc23)c1` [Compound 520, 5-(5-(Benzyloxy)pyridin-3-yl)-3-(4-(3-fluorophenyl)-1H-indol-2-yl)-1H-pyrazolo[3,4-b]pyridine], for which, in experiment [1], the inhibition at 10 µM was 18.2% and the EC50 is above 10000 nM. In the experiment with IL-6, the EC50 is above 10000 nM and the inhibition at 10 µM was 31.3%.
On to `FC1(F)CCN(Cc2cncc(-c3cnc4[nH]nc(-c5cc6ncccc6[nH]5)c4c3)c2)C1` [Compound 504, 5-(5-((3,3-Difluoropyrrolidin-1-yl)methyl)pyridin-3-yl)-3-(1H-pyrrolo[3,2-b]pyridin-2-yl)-1H-pyrazolo[3,4-b]pyridine], for which the inhibition at 10 µM in experiment [1] turned out to be 42.4%. In addition, the EC50 is above 10000 nM in experiment [1] and 116 nM in the experiment with IL-6.
On to `FC1(F)CCN(Cc2cncc(-c3cnc4[nH]nc(-c5cc6c(-c7ccncc7)cccc6[nH]5)c4c3)c2)C1` [Compound 118, 5-(5-((3,3-Difluoropyrrolidin-1-yl)methyl)pyridin-3-yl)-3-(4-(pyridin-4-yl)-1H-indol-2-yl)-1H-pyrazolo[3,4-b]pyridine], for which the results for the EC50 (in experiment [1]; in the experiment on IL-6) were 708 nM and 607 nM, respectively.
`CCCCC(=O)Nc1cncc(-c2cnc3[nH]nc(-c4cc5c(N6CCCCC6)cccc5[nH]4)c3c2)c1` [Compound 163, N-(5-(3-(4-(Piperidin-1-yl)-1H-indol-2-yl)-1H-pyrazolo[3,4-b]pyridin-5-yl)pyridin-3-yl)pentanamide] showed an EC50 in experiment [1] of 3390 nM. In the experiment with IL-6, the concentration giving a half-maximal response (EC50) was above 10000 nM and the inhibition at 10 µM turned out to be 43.2%.
Taken in the same sequence, the figures for `c1ccc(CNCc2cncc(-c3cnc4[nH]nc(-c5cc6c(-c7ccncc7)cccc6[nH]5)c4c3)c2)cc1` [Compound 116, N-Benzyl-1-(5-(3-(4-(pyridin-4-yl)-1H-indol-2-yl)-1H-pyrazolo[3,4-b]pyridin-5-yl)pyridin-3-yl)methanamine] were 3820 nM, above 10000 nM and 41.7%.
Regarding `c1ccc(COc2cncc(-c3cnc4[nH]nc(-c5cc6ncccc6[nH]5)c4c3)c2)cc1` [Compound 1006, 5-(5-(Benzyloxy)pyridin-3-yl)-3-(1H-pyrrolo[3,2-b]pyridin-2-yl)-1H-pyrazolo[3,4-b]pyridine], the EC50 in experiment [1] came out at 714 nM; with IL-6, 168 nM.
Consider `Cc1ccncc1-c1cnc2[nH]nc(-c3cc4c(-c5ccc(F)cc5)cccc4[nH]3)c2c1` [Compound 27, 3-(4-(4-Fluorophenyl)-1H-indol-2-yl)-5-(4-methylpyridin-3-yl)-1H-pyrazolo[3,4-b]pyridine], for which the EC50 is 3530 nM in experiment [1] and above 10000 nM in the experiment on IL-6. Moreover, the inhibition at 10 µM in the experiment with IL-6 turned out to be 41.7%.
Consider `Fc1ccccc1-c1cccc2[nH]c(-c3n[nH]c4ncc(C5CCNCC5)cc34)cc12` [Compound 539, 3-(4-(2-Fluorophenyl)-1H-indol-2-yl)-5-(piperidin-4-yl)-1H-pyrazolo[3,4-b]pyridine], for which the inhibition at 10 µM in experiment [1] came to 47.2%. The EC50 in experiment [1] was above 10000 nM; in the experiment with IL-6, 3600 nM.
Take `Fc1cccc(-c2cccc3[nH]c(-c4n[nH]c5ncc(-c6ccncc6)cc45)cc23)c1` [Compound 15, 3-(4-(3-Fluorophenyl)-1H-indol-2-yl)-5-(pyridin-4-yl)-1H-pyrazolo[3,4-b]pyridine]: in experiment [1], the inhibition at 10 µM was found to be 26% and the EC50 is above 10000 nM. In the experiment with IL-6, the EC50 was above 10000 nM and the inhibition at 10 µM was found to be 55.9%.
For `CN(C)CCOc1cncc(-c2cnc3[nH]nc(-c4cc5c(-c6cccnc6)cccc5[nH]4)c3c2)c1` [Compound 565, N,N-Dimethyl-2-((5-(3-(4-(pyridin-3-yl)-1H-indol-2-yl)-1H-pyrazolo[3,4-b]pyridin-5-yl)pyridin-3-yl)oxy)ethan-1-amine], in experiment [1], the inhibition at 10 µM was 34.5% and the EC50 is above 10000 nM. Besides, the EC50 in the experiment on IL-6 is 1980 nM.
As for `c1ccc2[nH]c(-c3n[nH]c4ncc(-c5cncc(CN6CCCC6)c5)cc34)cc2c1` [Compound 240, 3-(1H-Indol-2-yl)-5-(5-(pyrrolidin-1-ylmethyl)pyridin-3-yl)-1H-pyrazolo[3,4-b]pyridine], the EC50 amounted to 1410 nM in experiment [1] and 821 nM in the experiment with IL-6.
In the same order, the values of `Fc1cccc(-c2cccc3[nH]c(-c4n[nH]c5ncc(-c6cccnc6)cc45)cc23)c1` [Compound 2, 3-(4-(3-Fluorophenyl)-1H-indol-2-yl)-5-(pyridin-3-yl)-1H-pyrazolo[3,4-b]pyridine] are 295 nM and 15 nM.
Taken in the same sequence, the figures for `c1ccc(CNCc2cncc(-c3cnc4[nH]nc(-c5cc6ncccc6[nH]5)c4c3)c2)cc1` [Compound 502, 1-(5-(3-(1H-Pyrrolo[3,2-b]pyridin-2-yl)-1H-pyrazolo[3,4-b]pyridin-5-yl)pyridin-3-yl)-N-benzylmethanamine] were 3960 nM and 6010 nM.
Regarding `O=C(Nc1cncc(-c2cnc3[nH]nc(-c4cc5c(-c6cccc(F)c6)cccc5[nH]4)c3c2)c1)C1CCCCC1` [Compound 19, N-(5-(3-(4-(3-Fluorophenyl)-1H-indol-2-yl)-1H-pyrazolo[3,4-b]pyridin-5-yl)pyridin-3-yl)cyclohexanecarboxamide], the EC50 is 1480 nM in experiment [1] and above 10000 nM with IL-6. Moreover, the inhibition at 10 µM with IL-6 was 19.2%.
